# Measured values published in PubChem BioAssay (NCI).
# Values joined by “and” are separate entries in the source; they are usually repeats but may differ in a detail not shown here. Identical values can stand only once.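 Following 48 hours of exposure in 96-well plates, responses at five concentrations were used to interpolate endpoints linearly. GI50: concentration for 50% inhibition of growth. TGI: total growth inhibition.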 Where a SMILES comes first, the peptide text is derived from it. [ ]: non-standard residue; d: D form. The star is where a group is joined. ξ: configuration not given here. NMeF = CN[C@@H](Cc1ccccc1)C(=O)O; NMeV = CN[C@H](C(=O)O)C(C)C; ξNMeN = CNC(CC(N)=O)C(=O)O; NMeA = CN[C@@H](C)C(=O)O; ξNMeV = CNC(C(=O)O)C(C)C; Boc = CC(C)(C)OC(=O)*
# Legend:
# Test in all cases: NCI anticancer screen, dose series, 48 h
# [1] = system: SK-MEL-28 melanoma
# [2] = system: SNB-78 CNS
# [3] = system: SN12C renal
# [4] = system: A549 NSCLC
# [5] = system: HOP-62 NSCLC
# [6] = system: DLD-1 colon
# [7] = system: SW-620 colon
# [8] = system: DMS 114 small cell lung
# [9] = system: CAKI-1 renal
# [10] = system: NCI-H522 lung
# [11] = system: HT29 colon
# [12] = system: UACC-62 melanoma
# [13] = system: TK-10 renal
# [14] = system: SNB-19 CNS
# [15] = system: M14 melanoma
# [16] = system: KM12 colon
# [17] = system: UACC-257 melanoma
# [18] = system: LXFL 529 NSCLC
# [19] = system: COLO 205 colon
# [20] = system: HCC-2998 colon
# [21] = system: A498 renal
# [22] = system: OVCAR-4 ovarian
# [23] = system: M19-MEL melanoma
# [24] = system: NCI-H460 lung
# [25] = system: HL-60(TB) leukemia
# [26] = system: SK-MEL-5 melanoma
# [27] = system: MALME-3M melanoma
# [28] = system: CCRF-CEM leukemia
# [29] = system: SF-268 CNS
# [30] = system: NCI-H226 lung
# [31] = system: HCT-116 colon
# [32] = system: NCI-H23 lung
# [33] = system: SK-MEL-2 melanoma
# [34] = system: SF-539 CNS
# [35] = system: ACHN renal
# [36] = system: RPMI-8226 leukemia
# [37] = system: SNB-75 CNS
# [38] = system: UO-31 renal
# [39] = system: DMS 273 small cell lung
# [40] = system: OVCAR-8 ovarian
# [41] = system: HOP-92 NSCLC
# [42] = system: OVCAR-3 ovarian
# [43] = system: SR leukemia
# [44] = system: SK-OV-3 ovarian
# [45] = system: U251 CNS
# [46] = system: SF-295 CNS
# [47] = system: HCT-15 colon
# [48] = system: K-562 leukemia
# [49] = system: IGROV1 ovarian
# [50] = system: MOLT-4 leukemia
# [51] = system: 786-0 renal
# [52] = system: RXF 393 renal
# [53] = system: XF 498 CNS
# [54] = system: BT-549 breast
# [55] = system: MDA-N
# [56] = system: NCI/ADR-RES ovarian
# [57] = system: MDA-MB-231 breast
# [58] = system: T-47D breast
# [59] = system: OVCAR-5 ovarian
# [60] = system: DU-145 prostate
# [61] = system: MDA-MB-435
# [62] = system: LOX IMVI melanoma
# [63] = system: MCF7 breast
# [64] = system: PC-3 prostate
# [65] = system: EKVX NSCLC
# [66] = system: KM20L2 colon
smiles,measurement,setting,value
COc1cc(C2Oc3cc(-c4oc5cc(O)cc(O)c5c(=O)c4O)ccc3OC2CO)ccc1O (centres undefined),TGI,[1],62.3 µM
same,TGI,[2],> 100 µM
same,TGI,[3],> 95.2 µM
same,TGI,[4],> 100 µM
same,TGI,[5],> 80.4 µM
same,TGI,[6],> 100 µM
same,TGI,[7],> 100 µM
same,TGI,[8],> 100 µM
same,TGI,[9],> 73.2 µM
same,TGI,[10],> 30 µM
same,TGI,[11],69.7 µM
same,TGI,[12],> 100 µM
same,TGI,[13],58.3 µM
same,TGI,[14],81.7 µM
same,TGI,[15],> 70.5 µM
same,TGI,[16],> 100 µM
same,TGI,[17],> 100 µM
same,TGI,[18],> 100 µM
same,TGI,[19],75.3 µM
same,TGI,[20],> 78.9 µM
same,TGI,[21],> 49.3 µM
same,TGI,[22],> 76.7 µM
same,TGI,[23],> 100 µM
same,TGI,[24],12.7 µM
same,TGI,[25],> 64.5 µM
same,TGI,[26],96.5 µM
same,TGI,[27],67 µM
same,TGI,[28],> 100 µM
same,TGI,[29],> 57.2 µM
same,TGI,[30],82.1 µM
same,TGI,[31],> 37.1 µM
same,TGI,[32],34.9 µM
same,TGI,[33],32.6 µM
same,TGI,[34],34.3 µM
same,TGI,[35],29.1 µM
same,TGI,[36],> 56.4 µM
same,TGI,[37],> 60.7 µM
same,TGI,[38],6.81 µM
same,TGI,[39],31.2 µM
same,TGI,[40],> 100 µM
same,TGI,[41],52 µM
same,TGI,[42],54.8 µM
same,TGI,[43],> 54.1 µM
same,TGI,[44],> 95.5 µM
same,TGI,[45],> 100 µM
same,TGI,[46],64.8 µM
same,TGI,[47],> 100 µM
same,TGI,[48],> 100 µM
same,TGI,[49],> 100 µM
same,TGI,[50],> 38.9 µM
same,TGI,[51],72.8 µM
same,TGI,[52],6.02 µM
same,TGI,[53],> 62.4 µM
COC(=O)[C@H](C)N(C)C(=O)C(CC(N)=O)N(C)C(=O)[C@H](Cc1ccccc1)N(C)C(=O)[C@@H]1CCCN1C(=O)[C@H](C(C)C)N(C)C(=O)C(C(C)C)N(C)C(=O)[C@@H](NC(=O)OC(C)(C)C)C(C)C (some centres undefined) (Boc-V[ξNMeV][NMeV]P[NMeF][ξNMeN][NMeA]-OMe),TGI,[54],> 50 µM
same,GI50,[1],31.4 µM
same,TGI,[1],> 75 µM
same,TGI,[2],> 75 µM
same,TGI,[3],> 75 µM
same,TGI,[55],> 50 µM
same,GI50,[4],> 75 µM
same,TGI,[4],> 75 µM
same,GI50,[5],> 75 µM
same,TGI,[5],> 75 µM
same,TGI,[6],> 75 µM
same,GI50,[7],34.7 µM
same,TGI,[7],> 75 µM
same,TGI,[56],> 50 µM
same,TGI,[8],55.6 µM
same,GI50,[9],> 75 µM
same,TGI,[9],> 75 µM
same,GI50,[10],34.8 µM
same,TGI,[10],> 75 µM
same,GI50,[11],27.2 µM
same,TGI,[11],> 75 µM
same,GI50,[12],25.8 µM
same,TGI,[12],> 75 µM
same,GI50,[13],59.2 µM
same,TGI,[13],> 75 µM
same,GI50,[14],> 75 µM
same,TGI,[14],> 75 µM
same,TGI,[57],> 50 µM
same,GI50,[15],31.6 µM
same,TGI,[15],> 75 µM
same,TGI,[16],34 µM
same,TGI,[17],> 75 µM
same,TGI,[18],> 75 µM
same,TGI,[58],> 50 µM
same,GI50,[19],> 75 µM
same,TGI,[19],> 75 µM
same,GI50,[20],38.5 µM
same,TGI,[20],> 75 µM
same,GI50,[21],60.1 µM
same,TGI,[21],> 75 µM
same,TGI,[22],> 75 µM
same,GI50,[59],> 75 µM
same,TGI,[59],> 75 µM
same,TGI,[23],50.9 µM
same,GI50,[24],25.4 µM
same,TGI,[24],> 75 µM
same,TGI,[60],> 50 µM
same,GI50,[25],16.8 µM
same,TGI,[25],35.9 µM and 36.3 µM
same,GI50,[26],35.2 µM
same,TGI,[26],> 75 µM
same,TGI,[27],> 75 µM
same,GI50,[28],21.8 µM
same,TGI,[28],39.3 µM and > 75 µM
same,TGI,[61],> 50 µM
same,TGI,[29],> 75 µM
same,TGI,[30],> 75 µM
same,GI50,[31],28 µM
same,TGI,[31],> 75 µM
same,GI50,[32],35.6 µM
same,TGI,[32],> 75 µM
same,GI50,[62],26.7 µM
same,TGI,[62],> 75 µM
same,GI50,[33],18 µM
same,TGI,[33],> 50 µM and 48.8 µM
same,GI50,[34],> 75 µM
same,TGI,[34],> 75 µM
same,GI50,[35],> 75 µM
same,TGI,[35],> 75 µM
same,TGI,[36],> 5 µM
same,TGI,[37],> 75 µM
same,GI50,[38],40.6 µM
same,TGI,[38],> 75 µM
same,TGI,[39],> 75 µM
same,TGI,[40],> 75 µM
same,GI50,[41],17.2 µM
same,TGI,[41],50 µM and 57.4 µM
same,TGI,[42],> 75 µM
same,TGI,[63],> 50 µM
same,TGI,[43],62.4 µM
same,GI50,[44],> 75 µM
same,TGI,[44],> 75 µM
same,TGI,[64],> 50 µM
same,GI50,[45],67.1 µM
same,TGI,[45],> 75 µM
same,GI50,[46],> 75 µM
same,TGI,[46],> 75 µM
same,TGI,[47],> 75 µM
same,GI50,[48],33.1 µM
same,TGI,[48],> 75 µM
same,GI50,[49],36.7 µM
same,TGI,[49],> 75 µM
same,GI50,[50],17.1 µM
same,TGI,[50],50 µM and 51.1 µM
same,GI50,[65],> 75 µM
same,TGI,[65],> 75 µM
same,GI50,[51],> 75 µM
same,TGI,[51],> 75 µM
same,TGI,[52],50 µM
same,TGI,[53],> 75 µM
same,TGI,[66],> 75 µM
